Values of other authors in US8685449B2, “Pharmaceutical composition with anti-obesity activity comprising a premixture of pure orlistat and preparation process” (Laboratorios Bago S.A., priority 2010, dated 2014).

Details: particularly in a wet environment and at a temperature above 35° C., and inclusive in a dry environment

Compound: CCCCCCCCCCC[C@@H](C[C@@H]1OC(=O)[C@H]1CCCCCC)OC(=O)[C@H](CC(C)C)NC=O [orlistat, (−) tetrahydrolipstatin]
- stability (hydrolisis and thermal degradation): susceptible to hydrolisis and thermal degradation
